The source of these data is patent publication US7361665B2, “Inhibitors of c-Jun N-terminal kinases (JNK) and other protein kinases” (Vertex Pharmaceuticals Incorporated, priority 2002, dated 2008).

For this experiment, the target named is T1, JNK3 (Homo sapiens, UniProt P53779).
T1 construct: One such construct encodes amino acid residues Ser40-Glu402 of JNK3α1 and is preceded by Met and Gly residues; Met-Gly dipeptide (initiation Met plus Gly added for the NcoI site) (N); made in house; host or cells: E. coli BL21 (DE3)
T1 sequence (P53779 40-402): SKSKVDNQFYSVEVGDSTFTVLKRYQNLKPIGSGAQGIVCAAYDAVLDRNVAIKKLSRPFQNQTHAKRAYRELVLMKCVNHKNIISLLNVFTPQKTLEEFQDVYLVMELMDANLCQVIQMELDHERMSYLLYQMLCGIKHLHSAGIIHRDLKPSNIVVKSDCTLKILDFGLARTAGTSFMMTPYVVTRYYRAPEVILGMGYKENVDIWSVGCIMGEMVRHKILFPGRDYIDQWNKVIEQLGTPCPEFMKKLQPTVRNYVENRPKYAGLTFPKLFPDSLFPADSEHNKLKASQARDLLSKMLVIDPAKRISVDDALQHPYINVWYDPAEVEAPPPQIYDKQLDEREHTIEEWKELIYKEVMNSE
The experiment is described as follows: JNK inhibition assay (spectrophotometric coupled-enzyme assay). Format: biochemical. Particulars: activated JNK3 10 nM, 10 μM ATP, 30° C.; read-out: JNK3 Activity (Ki rating). The text has this:
A BLAST search of the EST database using the published JNK3α1 cDNA as a query identified an EST clone (#632588) that contained the entire coding sequence for human JNK3α1. Polymerase chain reactions (PCR) using pfu polymerase (Strategene) were used to introduce restriction sites into the cDNA for cloning into the pET-15B expression vector at the NcoI and BamHI sites. The protein was expressed in E. coli. Due to the poor solubility of the expressed full-length protein (Met 1-Gln 422), an N-terminally truncated protein starting at Ser residue at position 40 (Ser 40) was produced. This truncation corresponds to Ser 2 of JNK1 and JNK2 proteins, and is preceded by a methionine (initiation) and a glycine residue. The glycine residue was added in order to introduce an NcoI site for cloning into the expression vector. In addition, systematic C-terminal truncations were performed by PCR to identify a construct that give rise to diffraction-quality crystals. One such construct encodes amino acid residues Ser40-Glu402 of JNK3α1 and is preceded by Met and Gly residues.
Five mg of JNK3 was diluted to 0.5 mg/ml in 50 mM HEPES buffer, pH 7.5, containing 100 mM NaCl, 5 mM DTT, 20 mM MgCl2 and 1 mM ATP. GST-MKK7(DD) was added at a molar ratio of 1:2.5 GST-MKK7:JNK3. After incubation for 30 minutes at 25° C., the reaction mixture was concentrated 5-fold by ultrafiltration in a Centriprep-30 (Amicon, Beverly, Mass.), diluted to 10 ml and an additional 1 mM ATP added. This procedure was repeated three times to remove ADP and replenish ATP. The final addition of ATP was 5 mM and the mixture incubated overnight at 4° C.
The activated JNK3/GST-MKK7(DD) reaction mixture was exchanged into 50 mM HEPES buffer, pH 7.5, containing 5 mM DTT and 5% glycerol (w/v) by dialysis or ultrafiltration. The reaction mixture was adjusted to 1.1 M potassium phosphate, pH 7.5, and purified by hydrophobic interaction chromatography (at 25° C.) using a Rainin Hydropore column. […] Activated JNK3 (i.e. doubly phosphorylated JNK3) was stored at −70° C. at 0.25-1 mg/ml.
Compounds were assayed for the inhibition of JNK3 by a spectrophotometric coupled-enzyme assay. In this assay, a fixed concentration of activated JNK3 (10 nM) was incubated with various concentrations of a potential inhibitor dissolved in DMSO for 10 minutes at 30° C. in a buffer containing 0.1 M HEPES buffer, pH 7.5, containing 10 mM MgCl2, 2.5 mM phosphoenolpyruvate, 200 μM NADH, 150 μg/mL pyruvate kinase, 50 μg/mL lactate dehydrogenase, and 200 μM EGF receptor peptide. The EGF receptor peptide has the sequence […] (SEQ ID NO: 3), and is a phosphoryl acceptor in the JNK3-catalyzed kinase reaction. The reaction was initiated by the addition of 10 μM ATP and the assay plate is inserted into the spectrophotometer's assay plate compartment that was maintained at 30° C. The decrease of absorbance at 340 nm was monitored as a function of time. The rate data as a function of inhibitor concentration was fitted to competitive inhibition kinetic model to determine the Ki.
The compound numbers correspond to the compound numbers in Tables 1-3.
For orientation: Ki means a dissociation constant, usually derived from enzyme kinetics or from competition with a known ligand. Consider `COCn1c(-c2ccnc(Nc3ccc(F)cc3)n2)cnc1-c1ccccc1` [IIa-11], for which the Ki is > 1000 nM.
Next, `COCn1c(-c2ccnc(Nc3ccccc3)n2)cnc1-c1ccccc1` [IIa-12]: > 1000 nM.
Then `COCn1c(-c2ccnc(Nc3ccc([N+](=O)[O-])cc3)n2)cnc1-c1ccccc1` [IIa-13], with > 1000 nM; and `COCn1c(-c2ccnc(Nc3cc(OC)cc(OC)c3)n2)cnc1-c1ccccc1` [IIa-15], with > 1000 nM; and `COCn1c(-c2ccnc(Nc3cccc(Br)c3)n2)cnc1-c1ccccc1` [IIa-16], with > 1000 nM.
Next, `COCn1c(-c2ccnc(Nc3cccc(OCc4ccccc4)c3)n2)cnc1-c1ccccc1` [IIa-17]: > 1000 nM; `COc1cccc(Nc2nccc(-c3cnc(-c4cccnc4)n3C)n2)c1` [IIa-18]: 100 to 1000 nM.
For `COc1cc(Nc2nccc(-c3cnc(-c4cccnc4)n3C)n2)cc(OC)c1` [IIa-19], the Ki lay within 100 to 1000 nM.
Next, `Cn1c(-c2ccnc(Nc3cccc(Br)c3)n2)cnc1-c1cccnc1` [IIa-20]: 100 to 1000 nM; `Cn1c(-c2ccnc(Nc3ccc([N+](=O)[O-])cc3)n2)cnc1-c1cccnc1` [IIa-21]: 100 to 1000 nM.
Then `COC(=O)c1cccc(Nc2nccc(-c3cnc(-c4cccnc4)n3C)n2)c1` [IIa-22], with 100 to 1000 nM.
Then `Clc1ccc(Nc2nccc(-c3cnc(Cc4c(Cl)cccc4Cl)[nH]3)n2)cc1` [IIa-23], with 100 to 1000 nM; and `COc1cccc(Nc2nccc(-c3cnc(Cc4c(Cl)cccc4Cl)[nH]3)n2)c1` [IIa-25], with < 100 nM; and `COc1cc(Nc2nccc(-c3cnc(Cc4c(Cl)cccc4Cl)[nH]3)n2)cc(OC)c1` [IIa-26], with 100 to 1000 nM.
Take `Clc1cccc(Cl)c1Cc1ncc(-c2ccnc(Nc3cccc(Br)c3)n2)[nH]1` [IIa-27]: the Ki is 100 to 1000 nM.
Then `Clc1cccc(Cl)c1Cc1ncc(-c2ccnc(Nc3ccccc3)n2)[nH]1` [IIa-28], with 100 to 1000 nM.
Then `Clc1cccc(Cl)c1Cc1ncc(-c2ccnc(Nc3cccc(OCc4ccccc4)c3)n2)[nH]1` [IIa-29], with 100 to 1000 nM; and `O=[N+]([O-])c1ccc(Nc2nccc(-c3cnc(Cc4c(Cl)cccc4Cl)[nH]3)n2)cc1` [IIa-30], with 100 to 1000 nM.
As to `COC(=O)c1cccc(Nc2nccc(-c3cnc(Cc4c(Cl)cccc4Cl)[nH]3)n2)c1` [IIa-31], the Ki was in the range of 100 to 1000 nM.
Next, `Clc1ccc(Nc2nccc(-c3cnc(Cc4c(Cl)cccc4Cl)[nH]3)n2)cn1` [IIa-32]: 100 to 1000 nM; `Clc1ccc(Nc2nccc(-c3cnc(-c4ccccc4)o3)n2)cc1` [IIb-1, (4-Chloro-phenyl)-[4-(2-phenyl-oxazol-5-yl)-pyrimidin-2yl]-amine]: > 1000 nM; `Fc1ccc(Nc2nccc(-c3cnc(-c4ccccc4)o3)n2)cc1` [IIb-2]: 100 to 1000 nM.
Then `COc1cccc(Nc2nccc(-c3cnc(-c4ccccc4)o3)n2)c1` [IIb-3], with 100 to 1000 nM; and `COc1cc(Nc2nccc(-c3cnc(-c4ccccc4)o3)n2)cc(OC)c1` [IIb-4], with 100 to 1000 nM.
For `c1ccc(Nc2nccc(-c3cnc(-c4ccccc4)o3)n2)cc1` [IIb-5], the Ki was 100 to 1000 nM.
Next, `c1ccc(COc2cccc(Nc3nccc(-c4cnc(-c5ccccc5)o4)n3)c2)cc1` [IIb-6]: 100 to 1000 nM.
In the case of `O=[N+]([O-])c1ccc(Nc2nccc(-c3cnc(-c4ccccc4)o3)n2)cc1` [IIb-7], the Ki was 100 to 1000 nM.
Then `Cc1nc(-c2cccs2)sc1-c1ccnc(Nc2ccc(Cl)cc2)n1` [IIc-24], with > 1000 nM; and `Cc1nc(-c2cccs2)sc1-c1ccnc(Nc2ccc([N+](=O)[O-])cc2)n1` [IIc-25], with > 1000 nM.
